Legend:
[1] = target: T1, A2AAR (Homo sapiens, UniProt P29274); assay: Competition radioligand binding, hA2AAR ([3H]ZM241385 or [3H]CGS21680); settings: for fold weaker A2AAR affinity with respect to the parent amino derivative 6c / Ki: human A2AAR; for Ki: HEK-293 membranes, [3H]ZM241385 1.0 nM, 1 h 25 °C, mean ± SEM, read-out: Affinity, Ki, A2A
T1 construct: expressed in transfected cells
Experimental: The affinity of the amine congeners and other antagonists was measured using standard radioligand binding assays for hA1, A2A and A3ARs (Table 1).[1],[13],[14],[22] Membranes of human embryonic kidney (HEK)293 cells expressing the AR of interest were used in the assay. Primary amine congeners 6a–6d containing spacers of 2–5 methylenes were similar in terms of hA2AAR affinity (Ki 6–9 nM), with the butylamino congener 6c displaying the highest A2AAR selectivity in the series. The affinity of this compound for the hA3AR was determined to be 6.0 μM, with only slightly higher hA1AR affinity. Homologation to 6 methylenes in compound 6e lowered A2AAR affinity. […] No dependence of the affinity on the chain length was evident when comparing AlexaFluor647 conjugates 9 and 10.
Fig. 1 Antagonist radioligand ([^3H]2, 1.0 nM) binding inhibition curves for the hA2AAR for four antagonist fluorescent conjugates. Compound numbers: MRS7322 9, MRS7395 10, MRS7396 11 and MRS7416 12. Membranes from HEK-293 cells expressing the hA2AAR were used, and their incubation was performed for 1 h at 25 °C. Results are expressed as the mean ± SEM.
Cell culture for membrane binding assays and flow cytometry: HEK-293 cells stably expressing the A2AAR were grown in Dulbecco’s Modified Eagle’s Medium (DMEM) with 10% FBS, 100 units/ml penicillin, […] streptomycin, 2 mM L-glutamine and 0.500 mg/mL G418 Sulfate (Geneticin). […]
Radioligand binding assays: Cell membranes were prepared as reported.1
Binding assays were carried out using standard radioligands and membrane preparations from HEK-293 cells stably expressing the human (h) A1, A2A or A3ARs or mouse (m) A1, A2A or A3ARs. The radioligands used were: A1AR, [3H]8-cyclopentyl-1,3-dipropylxanthine 14; A2AAR, [3H]2; A3AR, [125I]N6-(4-amino-3-iodobenzyl)adenosine-5′-N-methyluronamide 16. The radioligand for archival A2AAR affinity data presented in Table 1 was [3H]2-[p-(2-carboxyethyl)phenyl-ethylamino]-5′-N-ethylcarboxamidoadenosine 15. Nonspecific binding was determined using 10 µM 8-[4-[[[[(2-aminoethyl)amino]carbonyl]methyl]oxy]phenyl]-1,3-dipropylxanthine 17 (A1AR and A2AAR) or 10 µM adenosine-5′-N-ethyluronamide 18 (A3AR). HEK-293 cells expressing recombinant mA1, A2A, or A3AR […]
Protein was determined as reported.2 In all the binding experiments, IC50 values and Ki values were calculated using GraphPad Prism software (San Diego, CA). Values are expressed as mean±SEM. […]
Med. Chem. Comm., 2015, 6:555-563.
2. Bradford, M. M. A rapid and sensitive method for the quantitation of microgram quantities of protein utilizing the principle of protein -dye binding. Anal. Biochem. 1976, 72, 248-254.

[2] = target: T2, hA2AAR (Homo sapiens, UniProt P29274); assay: Flow cytometry saturation binding of fluorescent antagonists in whole cells; type: cell-based; settings: hA2AAR-expressing HEK-293 cells; for nonspecific binding: result in words
T2 construct: expressed in transfected cells
Experimental: Compounds 11 and 12 were tested as fluorescent tracers for flow cytometry of HEK-293 cells expressing the hA2AAR (Fig. 4A). […] Thus, 11 tended to bind non-specifically to hydrophobic membranes by undetermined mechanisms. […]. For inhibition studies, the cells were co-incubated for one hour prior to flow cytometry with fluorescent probe 12 (10 nM) and a test antagonist. […]
Fig. 4 Saturation of fluorescent antagonists 11 (A) and 12 (B) in hA2AAR-expressing HEK-293 cells measured using flow cytometry following a 1 h incubation at 37 °C. Non-specific binding was determined with 10 μM 3. Results are expressed as the mean ± SEM. The Kd value calculated from Fig. 4B is listed in the text.
Cell culture for membrane binding assays and flow cytometry: HEK-293 cells stably expressing the A2AAR were grown in Dulbecco’s Modified Eagle’s Medium (DMEM) with 10% FBS, 100 units/ml penicillin, […] streptomycin, 2 mM L-glutamine and 0.500 mg/mL G418 Sulfate (Geneticin). Cells were maintained in a humidified atmosphere and sterile incubation conditions held at 37 °C and 5% CO2 (g). A day prior to the experiment, cells were plated on a 96 -well clear and flat bottom plate at 80 -90% confluency in 100 µL of medium. […]
Fluorescent binding studies: All binding studies were done in triplicate. For saturation binding studies, cells were treated with 50 µL of 11 (MRS 7396) or 12 (MRS 7416), to achieve a final concentration from 0.19 to 400 nM, and 50 µL of Tris-HCl buffer containing 10 mM MgCl2. Non-specific binding was determined with SCH442416 3 (final concentration of 10 µM, in Tris-HCl buffer). For displacement experiments, cells were incubated simultaneously with 50 µL of 40 nM 11 or 12 (final concentration 10 nM) and 50 µL of the non-labeled displacing ligand at increasing concentrations. The total binding was measured in the absence of a displacing ligand, and non-specific binding was determined with 10 µM 3.
After 1 h at 37 °C (for both the saturation and displacement experiments), the medium was removed and the cells were carefully washed two times with 150 µL of ice-cold PBS (not containing Mg+2 or Ca+2).
The cells were treated with 40 µL of Corning Cellstripper (Mediatech, Manassas, VA) per well and then incubated at 37 °C for 10 min. To each well was subsequently added 160 µL of PBS (not containing Mg+2 or Ca+2), and the cell fluorescence was analyzed with a BD FACSCalibur flow cytometer (Becton, Dickinson and Co., Franklin Lakes, NJ) with excitation at 635 nm (red diode laser, for 11) or 488 nm (blue laser, for 12) in conjunction with the software from BD Bioscience PlateManager and CellQuest. […]
2. Bradford, M. M. A rapid and sensitive method for the quantitation of microgram quantities of protein utilizing the principle of protein -dye binding. […]

T1 sequence (P29274 whole entry): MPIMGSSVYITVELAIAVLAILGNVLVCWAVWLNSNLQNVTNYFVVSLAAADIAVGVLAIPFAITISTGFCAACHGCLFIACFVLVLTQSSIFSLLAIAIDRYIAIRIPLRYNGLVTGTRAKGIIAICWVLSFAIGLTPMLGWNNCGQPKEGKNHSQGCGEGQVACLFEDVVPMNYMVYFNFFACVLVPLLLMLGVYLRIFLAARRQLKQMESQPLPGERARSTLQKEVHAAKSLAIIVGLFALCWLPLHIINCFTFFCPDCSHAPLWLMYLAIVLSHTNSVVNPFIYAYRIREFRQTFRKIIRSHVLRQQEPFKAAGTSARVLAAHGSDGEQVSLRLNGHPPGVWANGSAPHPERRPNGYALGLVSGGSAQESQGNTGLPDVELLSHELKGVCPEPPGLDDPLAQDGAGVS
T2 sequence (P29274 whole entry): as above

`Nc1nc2c(cnn2CCCc2ccc(OCC(=O)NCCCCNC(=O)CCCCCNC(=O)COc3ccc(/C=C/C4=[N+]5C(=Cc6ccc(-c7cccs7)n6[B-]5(F)F)C=C4)cc3)cc2)c2nc(-c3ccco3)nn12` [compound 11] was tested, and the “fold weaker A2AAR affinity with respect to the parent amino derivative 6c” value [1] was 4 fold, the Ki [1] was 24.6 ± 17.6 nM and the “specific binding, % of the total” value ([2]; 1 h 37 °C, nonspecific with 10 μM 3) was under 25%. The nonspecific binding [2] was “high nonspecific binding”.

For `CCN(CC)CC.CCN(CC)CC.N=c1ccc2c(-c3ccc(C(=O)NCCCCNC(=O)COc4ccc(CCCn5ncc6c5nc(N)n5nc(-c7ccco7)nc65)cc4)cc3C(=O)O)c3ccc(N)c(S(=O)(=O)O)c3oc-2c1S(=O)(=O)O` [compound 12], the “fold weaker A2AAR affinity with respect to the parent amino derivative 6c” value [1] was 4 fold, the Ki [1] was 30.3 ± 4.9 nM and the Kd ([2]; 1 h 37 °C) was 45.4 nM. For the same compound, the nonspecific binding [2] was “low nonspecific binding”.

With `N.Nc1nc2c(cnn2CCCc2ccc(OCc3ccc(S(=O)(=O)O)cc3)cc2)c2nc(-c3ccco3)nn12` [compound 13] the “A2AAR selectivity compared to the hA1AR” value ([1]; hA2AAR vs hA1AR binding) was 671 fold, the “A2AAR selectivity compared to the hA3AR” value ([1]; hA2AAR vs hA3AR binding) was 426 fold and the Ki [1] was 6.2 nM.

— PMC5729930, “Bitopic fluorescent antagonists of the A2A adenosine receptor based on pyrazolo[4,3-e][1,2,4]triazolo[1,5-c]pyrimidin-5-amine functionalized congeners” (MedChemComm, 2017)
